# Key:
# [1] = biological target: Serine/threonine-protein kinase Chk1 (Homo sapiens) (UniProt O14757); conditions: Compound concentration 1000.0 nM
# [2] = biological target: Cyclin-dependent kinase 8 (Homo sapiens) (UniProt P49336); conditions: Compound concentration 1000.0 nM
# [3] = biological target: Phosphorylase b kinase regulatory subunit alpha, liver isoform (Homo sapiens) (UniProt P46019); conditions: Compound concentration 1000.0 nM
# [4] = biological target: Platelet-derived growth factor receptor alpha (Homo sapiens) (UniProt P16234); conditions: Compound concentration 1000.0 nM
# [5] = tested on: Mast/stem cell growth factor receptor Kit (Homo sapiens), P10721 [V559D,V654A]; conditions: Compound concentration 1000.0 nM
# [6] = biological target: Mitogen-activated protein kinase 1 (Homo sapiens) (UniProt P28482); conditions: Compound concentration 1000.0 nM
# [7] = tested on: Hepatocyte growth factor receptor (Homo sapiens), P08581 [M1250T]; conditions: Compound concentration 1000.0 nM
# [8] = biological target: Ribosomal protein S6 kinase alpha-6 (Homo sapiens) (UniProt Q9UK32); conditions: Compound concentration 1000.0 nM
# [9] = biological target: Ephrin type-A receptor 2 (Homo sapiens) (UniProt P29317); conditions: Compound concentration 1000.0 nM
# [10] = biological target: Vascular endothelial growth factor receptor 1 (Homo sapiens) (UniProt P17948); conditions: Compound concentration 1000.0 nM
# [11] = biological target: Serine/threonine-protein kinase MAK (Homo sapiens) (UniProt P20794); conditions: Compound concentration 1000.0 nM
# [12] = biological target: T1, Sigma intracellular receptor 2 (Homo sapiens, UniProt Q5BJF2); conditions: Compound concentration 10.0 uM
# [13] = biological target: Focal adhesion kinase 1 (Homo sapiens) (UniProt Q05397); conditions: Compound concentration 1000.0 nM
# [14] = biological target: Cyclin-dependent kinase-like 5 (Homo sapiens) (UniProt O76039); conditions: Compound concentration 1000.0 nM
# [15] = biological target: MAP/microtubule affinity-regulating kinase 4 (Homo sapiens) (UniProt Q96L34); conditions: Compound concentration 1000.0 nM
# [16] = biological target: Serine/threonine-protein kinase N1 (Homo sapiens) (UniProt Q16512); conditions: Compound concentration 1000.0 nM
# [17] = biological target: Tyrosine-protein kinase Fyn (Homo sapiens) (UniProt P06241); conditions: Compound concentration 1000.0 nM
# [18] = biological target: Calcium/calmodulin-dependent protein kinase type II subunit alpha (Homo sapiens) (UniProt Q9UQM7); conditions: Compound concentration 1000.0 nM
# [19] = biological target: Calcium/calmodulin-dependent protein kinase type II subunit delta (Homo sapiens) (UniProt Q13557); conditions: Compound concentration 1000.0 nM
# [20] = biological target: Phosphorylase b kinase gamma catalytic chain, skeletal muscle/heart isoform (Homo sapiens) (UniProt Q16816); conditions: Compound concentration 1000.0 nM
# [21] = biological target: TGF-beta receptor type-1 (Homo sapiens) (UniProt P36897); conditions: Compound concentration 1000.0 nM
# [22] = tested on: Phosphatidylinositol 4,5-bisphosphate 3-kinase catalytic subunit alpha isoform (Homo sapiens), P42336 [M1043I]; conditions: Compound concentration 1000.0 nM
# [23] = biological target: Tyrosine-protein kinase ITK/TSK (Homo sapiens) (UniProt Q08881); conditions: Compound concentration 1000.0 nM
# [24] = biological target: Bone morphogenetic protein receptor type-2 (Homo sapiens) (UniProt Q13873); conditions: Compound concentration 1000.0 nM
# [25] = biological target: Calcium/calmodulin-dependent protein kinase type 1B (Homo sapiens) (UniProt Q6P2M8); conditions: Compound concentration 1000.0 nM
# [26] = biological target: Protein-tyrosine kinase 2-beta (Homo sapiens) (UniProt Q14289); conditions: Compound concentration 1000.0 nM
# [27] = tested on: Phosphatidylinositol 4,5-bisphosphate 3-kinase catalytic subunit alpha isoform (Homo sapiens), P42336 [E542K]; conditions: Compound concentration 1000.0 nM
# [28] = biological target: Protein kinase C epsilon type (Homo sapiens) (UniProt Q02156); conditions: Compound concentration 1000.0 nM
# [29] = biological target: Serine/threonine-protein kinase TNNI3K (Homo sapiens) (UniProt Q59H18); conditions: Compound concentration 1000.0 nM
# [30] = biological target: Mitogen-activated protein kinase 9 (Homo sapiens) (UniProt P45984); conditions: Compound concentration 1000.0 nM
# [31] = tested on: Epidermal growth factor receptor (Homo sapiens), P00533 [L861Q]; conditions: Compound concentration 1000.0 nM
# [32] = biological target: MAP kinase-activated protein kinase 2 (Homo sapiens) (UniProt P49137); conditions: Compound concentration 1000.0 nM
# [33] = biological target: Interleukin-1 receptor-associated kinase 3 (Homo sapiens) (UniProt Q9Y616); conditions: Compound concentration 1000.0 nM
# [34] = biological target: Protein kinase C eta type (Homo sapiens) (UniProt P24723); conditions: Compound concentration 1000.0 nM
# [35] = biological target: Dual specificity mitogen-activated protein kinase kinase 4 (Homo sapiens) (UniProt P45985); conditions: Compound concentration 1000.0 nM
# [36] = biological target: Serine/threonine-protein kinase LATS2 (Homo sapiens) (UniProt Q9NRM7); conditions: Compound concentration 1000.0 nM
# [37] = biological target: Serine/threonine-protein kinase RIO2 (Homo sapiens) (UniProt Q9BVS4); conditions: Compound concentration 1000.0 nM
# [38] = biological target: Myosin light chain kinase family member 4 (Homo sapiens) (UniProt Q86YV6); conditions: Compound concentration 1000.0 nM
# [39] = biological target: Mitogen-activated protein kinase 11 (Homo sapiens) (UniProt Q15759); conditions: Compound concentration 1000.0 nM
# [40] = biological target: Cyclin-dependent kinase 19 (Homo sapiens) (UniProt Q9BWU1); conditions: Compound concentration 1000.0 nM
# [41] = biological target: Macrophage colony-stimulating factor 1 receptor (Homo sapiens) (UniProt P07333); conditions: Compound concentration 1000.0 nM
# [42] = biological target: Serine/threonine-protein kinase 17A (Homo sapiens) (UniProt Q9UEE5); conditions: Compound concentration 1000.0 nM
# [43] = biological target: Non-receptor tyrosine-protein kinase TNK1 (Homo sapiens) (UniProt Q13470); conditions: Compound concentration 1000.0 nM
# [44] = biological target: Mitogen-activated protein kinase 15 (Homo sapiens) (UniProt Q8TD08); conditions: Compound concentration 1000.0 nM
# [45] = biological target: T1, Sigma intracellular receptor 2; test: GPCRScan assay: inhibition of Sigma 2; design: radioligand conc. used [nm] 5.0, parental cells HEKT
# T1 sequence (Q5BJF2 whole entry): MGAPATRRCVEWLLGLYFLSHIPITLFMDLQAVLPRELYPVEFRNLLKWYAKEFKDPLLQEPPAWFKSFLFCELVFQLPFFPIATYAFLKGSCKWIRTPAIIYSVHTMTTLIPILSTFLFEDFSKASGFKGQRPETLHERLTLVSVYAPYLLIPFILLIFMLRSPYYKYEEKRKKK
# Sequence of Mitogen-activated protein kinase 1 (Homo sapiens) (P28482 whole entry): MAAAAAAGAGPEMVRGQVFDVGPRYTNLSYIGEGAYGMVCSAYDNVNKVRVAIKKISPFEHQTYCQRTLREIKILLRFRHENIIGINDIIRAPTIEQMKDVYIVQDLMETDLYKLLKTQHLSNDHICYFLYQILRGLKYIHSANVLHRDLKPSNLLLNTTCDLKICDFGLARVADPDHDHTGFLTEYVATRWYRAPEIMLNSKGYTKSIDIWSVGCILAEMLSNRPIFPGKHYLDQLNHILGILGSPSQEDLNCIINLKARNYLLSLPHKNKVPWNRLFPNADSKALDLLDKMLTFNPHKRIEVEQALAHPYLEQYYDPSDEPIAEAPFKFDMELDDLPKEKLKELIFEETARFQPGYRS
# Sequence of Phosphatidylinositol 4,5-bisphosphate 3-kinase catalytic subunit alpha isoform (Homo sapiens), P42336 [E542K] (P42336 whole entry E542K, canonical isoform): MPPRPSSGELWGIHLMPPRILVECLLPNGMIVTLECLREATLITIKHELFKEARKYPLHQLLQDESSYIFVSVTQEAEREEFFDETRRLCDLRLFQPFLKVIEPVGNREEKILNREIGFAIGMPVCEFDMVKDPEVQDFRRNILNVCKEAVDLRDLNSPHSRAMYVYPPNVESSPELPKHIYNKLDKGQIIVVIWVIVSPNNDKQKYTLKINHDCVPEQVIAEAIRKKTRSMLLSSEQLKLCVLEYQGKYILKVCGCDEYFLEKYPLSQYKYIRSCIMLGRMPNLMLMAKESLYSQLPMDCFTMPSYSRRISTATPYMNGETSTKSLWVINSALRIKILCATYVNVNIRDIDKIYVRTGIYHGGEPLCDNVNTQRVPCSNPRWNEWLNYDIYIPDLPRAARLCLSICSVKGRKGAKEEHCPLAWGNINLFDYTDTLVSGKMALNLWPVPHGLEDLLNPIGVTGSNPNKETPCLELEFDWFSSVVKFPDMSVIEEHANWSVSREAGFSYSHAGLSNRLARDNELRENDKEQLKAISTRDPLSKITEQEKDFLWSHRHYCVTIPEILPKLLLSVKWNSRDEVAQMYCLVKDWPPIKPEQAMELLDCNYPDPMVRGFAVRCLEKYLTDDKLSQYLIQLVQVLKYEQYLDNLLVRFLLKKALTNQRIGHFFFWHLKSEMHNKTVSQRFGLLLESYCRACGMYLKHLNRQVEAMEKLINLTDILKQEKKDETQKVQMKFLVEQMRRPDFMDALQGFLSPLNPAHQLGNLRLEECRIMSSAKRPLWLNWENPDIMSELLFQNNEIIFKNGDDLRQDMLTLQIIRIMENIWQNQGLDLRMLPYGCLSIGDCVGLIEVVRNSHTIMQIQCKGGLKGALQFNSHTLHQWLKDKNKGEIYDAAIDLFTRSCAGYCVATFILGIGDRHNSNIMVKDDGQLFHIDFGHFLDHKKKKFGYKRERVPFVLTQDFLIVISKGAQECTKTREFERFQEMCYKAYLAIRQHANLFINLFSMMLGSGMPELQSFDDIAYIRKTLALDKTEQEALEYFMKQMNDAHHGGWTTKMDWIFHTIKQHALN
# Sequence of Serine/threonine-protein kinase LATS2 (Homo sapiens) (Q9NRM7 whole entry): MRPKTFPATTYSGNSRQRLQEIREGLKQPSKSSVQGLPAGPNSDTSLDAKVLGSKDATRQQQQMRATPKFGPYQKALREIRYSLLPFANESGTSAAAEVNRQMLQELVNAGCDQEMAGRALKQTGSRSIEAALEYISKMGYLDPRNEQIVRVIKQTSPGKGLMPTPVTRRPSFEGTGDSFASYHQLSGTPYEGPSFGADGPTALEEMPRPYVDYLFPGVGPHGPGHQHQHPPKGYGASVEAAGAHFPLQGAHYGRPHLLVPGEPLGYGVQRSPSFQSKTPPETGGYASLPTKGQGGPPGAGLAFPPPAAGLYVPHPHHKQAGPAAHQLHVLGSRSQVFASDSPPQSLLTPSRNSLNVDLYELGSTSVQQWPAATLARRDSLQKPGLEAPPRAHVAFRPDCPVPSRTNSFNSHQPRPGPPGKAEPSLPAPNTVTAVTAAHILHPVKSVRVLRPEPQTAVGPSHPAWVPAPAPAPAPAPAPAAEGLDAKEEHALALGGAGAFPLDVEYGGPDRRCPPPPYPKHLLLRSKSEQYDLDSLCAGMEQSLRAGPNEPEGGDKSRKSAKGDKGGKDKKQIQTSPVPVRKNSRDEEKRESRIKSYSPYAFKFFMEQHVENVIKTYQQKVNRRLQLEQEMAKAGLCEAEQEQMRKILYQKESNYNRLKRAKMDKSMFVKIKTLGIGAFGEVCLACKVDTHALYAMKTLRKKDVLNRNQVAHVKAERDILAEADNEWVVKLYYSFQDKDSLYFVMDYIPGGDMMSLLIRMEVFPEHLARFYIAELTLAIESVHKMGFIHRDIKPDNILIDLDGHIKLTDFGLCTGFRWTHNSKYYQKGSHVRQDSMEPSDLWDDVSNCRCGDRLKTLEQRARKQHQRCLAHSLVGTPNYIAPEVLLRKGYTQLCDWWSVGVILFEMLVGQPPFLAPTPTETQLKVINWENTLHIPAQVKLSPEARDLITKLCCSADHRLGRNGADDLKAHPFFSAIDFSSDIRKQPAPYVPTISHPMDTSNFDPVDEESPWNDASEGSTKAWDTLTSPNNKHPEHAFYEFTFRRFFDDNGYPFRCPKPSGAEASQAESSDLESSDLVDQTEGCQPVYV
# Sequence of Calcium/calmodulin-dependent protein kinase type II subunit delta (Homo sapiens) (Q13557 whole entry, canonical isoform): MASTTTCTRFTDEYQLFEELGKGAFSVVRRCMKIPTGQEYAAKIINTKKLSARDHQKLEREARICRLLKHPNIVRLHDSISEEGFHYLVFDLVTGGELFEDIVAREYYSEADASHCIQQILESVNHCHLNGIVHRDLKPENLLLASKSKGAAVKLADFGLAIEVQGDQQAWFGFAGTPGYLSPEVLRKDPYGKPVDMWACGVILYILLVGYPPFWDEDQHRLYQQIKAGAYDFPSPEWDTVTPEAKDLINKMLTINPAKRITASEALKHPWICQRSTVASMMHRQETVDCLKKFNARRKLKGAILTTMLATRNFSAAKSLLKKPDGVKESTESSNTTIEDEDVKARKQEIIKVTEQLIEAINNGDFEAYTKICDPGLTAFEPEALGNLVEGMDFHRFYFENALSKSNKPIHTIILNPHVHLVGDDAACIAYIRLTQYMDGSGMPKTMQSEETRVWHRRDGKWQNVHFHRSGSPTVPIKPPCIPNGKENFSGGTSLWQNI
# Sequence of Cyclin-dependent kinase 19 (Homo sapiens) (Q9BWU1 whole entry): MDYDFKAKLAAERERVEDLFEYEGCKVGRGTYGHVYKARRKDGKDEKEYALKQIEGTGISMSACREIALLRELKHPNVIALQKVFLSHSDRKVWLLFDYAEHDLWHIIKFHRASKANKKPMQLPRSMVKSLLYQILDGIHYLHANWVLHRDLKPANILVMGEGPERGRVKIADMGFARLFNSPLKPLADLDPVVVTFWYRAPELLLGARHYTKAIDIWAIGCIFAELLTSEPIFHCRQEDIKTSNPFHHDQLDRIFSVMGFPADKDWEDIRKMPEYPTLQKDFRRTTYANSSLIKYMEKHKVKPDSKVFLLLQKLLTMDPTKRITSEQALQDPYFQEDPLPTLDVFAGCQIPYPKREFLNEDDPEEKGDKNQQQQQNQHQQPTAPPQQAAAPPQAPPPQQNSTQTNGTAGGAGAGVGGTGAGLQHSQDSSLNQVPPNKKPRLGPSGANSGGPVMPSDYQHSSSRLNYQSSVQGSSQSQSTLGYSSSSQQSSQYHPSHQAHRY
# Sequence of Ephrin type-A receptor 2 (Homo sapiens) (P29317 whole entry): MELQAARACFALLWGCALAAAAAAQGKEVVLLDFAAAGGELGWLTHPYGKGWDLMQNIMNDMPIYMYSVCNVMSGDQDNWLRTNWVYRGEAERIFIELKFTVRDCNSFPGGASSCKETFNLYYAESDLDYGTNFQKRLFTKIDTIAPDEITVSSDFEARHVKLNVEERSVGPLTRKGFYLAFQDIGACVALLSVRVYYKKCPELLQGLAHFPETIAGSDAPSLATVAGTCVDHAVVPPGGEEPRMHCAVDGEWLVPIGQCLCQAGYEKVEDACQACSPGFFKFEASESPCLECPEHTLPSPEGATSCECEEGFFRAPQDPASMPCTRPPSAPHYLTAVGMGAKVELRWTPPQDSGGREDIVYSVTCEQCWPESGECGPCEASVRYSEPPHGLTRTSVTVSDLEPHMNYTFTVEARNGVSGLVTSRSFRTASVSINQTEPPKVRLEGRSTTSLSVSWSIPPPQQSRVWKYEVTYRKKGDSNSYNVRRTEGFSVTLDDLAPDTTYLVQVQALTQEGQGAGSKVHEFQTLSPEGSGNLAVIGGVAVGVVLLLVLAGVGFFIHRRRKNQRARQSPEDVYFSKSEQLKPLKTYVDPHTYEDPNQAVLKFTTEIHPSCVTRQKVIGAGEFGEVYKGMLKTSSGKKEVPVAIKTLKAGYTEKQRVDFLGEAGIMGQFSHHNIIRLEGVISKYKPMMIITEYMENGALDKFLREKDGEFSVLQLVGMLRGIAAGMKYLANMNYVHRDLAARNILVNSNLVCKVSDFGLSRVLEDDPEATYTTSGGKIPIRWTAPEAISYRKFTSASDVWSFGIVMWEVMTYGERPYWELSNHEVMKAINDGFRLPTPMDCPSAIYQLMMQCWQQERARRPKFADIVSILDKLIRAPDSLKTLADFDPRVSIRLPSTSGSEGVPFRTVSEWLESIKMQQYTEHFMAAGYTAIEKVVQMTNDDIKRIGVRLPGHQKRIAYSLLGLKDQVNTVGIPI
# Sequence of Mitogen-activated protein kinase 11 (Homo sapiens) (Q15759 whole entry): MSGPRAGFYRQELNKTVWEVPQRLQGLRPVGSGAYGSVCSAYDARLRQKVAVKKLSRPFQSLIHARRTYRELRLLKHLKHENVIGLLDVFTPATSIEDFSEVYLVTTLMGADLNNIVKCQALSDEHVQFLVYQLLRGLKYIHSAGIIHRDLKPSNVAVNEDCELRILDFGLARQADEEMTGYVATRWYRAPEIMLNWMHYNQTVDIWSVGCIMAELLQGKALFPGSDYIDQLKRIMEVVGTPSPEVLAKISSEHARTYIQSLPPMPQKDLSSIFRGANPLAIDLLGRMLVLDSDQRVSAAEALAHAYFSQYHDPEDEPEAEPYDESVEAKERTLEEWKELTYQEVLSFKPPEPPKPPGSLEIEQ
smiles,measurement,setting,value
O=C(NCc1ncc(C(F)(F)F)cc1Cl)c1ccc2c(c1)C1(CCS(=O)(=O)CC1)[C@H](C1CC1)N2S(=O)(=O)c1ccc(F)cc1 [BAY-784],residual activity,[1],100%
same,residual activity,[2],80%
same,residual activity,[3],96%
same,residual activity,[4],90%
same,residual activity,[5],100%
same,residual activity,[6],81%
same,residual activity,[7],89%
same,residual activity,[8],87%
same,residual activity,[9],100%
same,residual activity,[10],98%
same,residual activity,[11],100%
same,inhibition,[12],74.9%
same,residual activity,[13],100%
same,residual activity,[14],78%
same,residual activity,[15],100%
same,residual activity,[16],100%
same,residual activity,[17],100%
same,residual activity,[18],94%
same,residual activity,[19],100%
same,residual activity,[20],100%
same,residual activity,[21],100%
same,residual activity,[22],93%
same,residual activity,[23],100%
same,residual activity,[24],80%
same,residual activity,[25],91%
same,residual activity,[26],100%
same,residual activity,[27],94%
same,residual activity,[28],69%
same,residual activity,[29],100%
same,residual activity,[30],76%
same,residual activity,[31],84%
same,residual activity,[32],100%
same,residual activity,[33],99%
same,residual activity,[34],100%
same,residual activity,[35],75%
same,residual activity,[36],100%
same,residual activity,[37],77%
same,residual activity,[38],100%
same,residual activity,[39],100%
same,residual activity,[40],100%
same,residual activity,[41],100%
same,residual activity,[42],100%
same,residual activity,[43],88%
same,residual activity,[44],100%
same,Ki,[45],1110 nM
O=C(NCc1ncc(C(F)(F)F)cc1Cl)c1ccc2c(c1)C1(CCS(=O)(=O)CC1)[C@@H](C1CC1)N2S(=O)(=O)c1ccc(F)cc1 [BAY-786],residual activity,[1],100%
same,residual activity,[2],63%
same,residual activity,[3],84%
same,residual activity,[4],87%
same,residual activity,[5],68%
same,residual activity,[6],83%
same,residual activity,[7],100%
same,residual activity,[8],100%
same,residual activity,[9],84%
same,residual activity,[10],82%
same,residual activity,[11],89%
same,inhibition,[12],52.7%
same,residual activity,[13],95%
same,residual activity,[14],67%
same,residual activity,[15],100%
same,residual activity,[16],100%
same,residual activity,[17],70%
same,residual activity,[18],90%
same,residual activity,[19],100%
same,residual activity,[20],100%
same,residual activity,[21],84%
same,residual activity,[22],56%
same,residual activity,[23],100%
same,residual activity,[24],73%
same,residual activity,[25],96%
same,residual activity,[26],100%
same,residual activity,[27],82%
same,residual activity,[28],76%
same,residual activity,[29],100%
same,residual activity,[30],82%
same,residual activity,[31],76%
same,residual activity,[32],100%
same,residual activity,[33],100%
same,residual activity,[34],96%
same,residual activity,[35],76%
same,residual activity,[36],99%
same,residual activity,[37],77%
same,residual activity,[38],95%
same,residual activity,[39],100%
same,residual activity,[40],100%
same,residual activity,[41],74%
same,residual activity,[42],73%
same,residual activity,[43],88%
same,residual activity,[44],100%
same,Ki,[45],2000 nM
